In assay [1] the target is Bcl-2 protein (histag-Bcl-2, UniProtKB P10415) (Homo sapiens (Human), UniProt P10415). Kind of assay: Inhibition of Bcl-2 by the fluorescence polarisation technique. It is filed as binding. The following applies: fluorescence polarisation test; incubation for 2 hours; read-out: IC50 (nM) Bcl-2 FP. The source says: For partial inhibitors, the percentage fluorescence polarisation inhibition for a given concentration of the test compound is indicated.
On the technique in general: In fluorescence polarisation assays a small probe gives low polarisation when free and higher when bound to something large.

For assay [2], the system named is RS4; 11 leukaemia cell line. Kind of assay: In vitro cytotoxicity, Microculture Tetrazolium Assay (MTT). It is filed as cell-based. Conditions: Homo sapiens, 11 cells exposed for 48 hours. As to the method:
The cytotoxicity studies were carried out on the RS4; 11 leukaemia cell line and on H146 small Cell Lung Carcinoma cell line. The cells are distributed onto microplates and exposed to the test compounds for 48 hours. The cell viability is then quantified by a colorimetric assay, the Microculture Tetrazolium Assay (Cancer Res., 1987, 47, 939-942).

Structures are written as SMILES.

Sequence of Bcl-2 protein (P10415 whole entry): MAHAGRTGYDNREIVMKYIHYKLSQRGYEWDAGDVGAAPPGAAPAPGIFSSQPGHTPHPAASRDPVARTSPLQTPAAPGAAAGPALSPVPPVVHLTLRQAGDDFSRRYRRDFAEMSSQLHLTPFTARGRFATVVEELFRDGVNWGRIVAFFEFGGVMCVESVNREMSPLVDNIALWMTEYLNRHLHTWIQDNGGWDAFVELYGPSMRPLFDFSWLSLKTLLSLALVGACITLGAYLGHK

For orientation: IC50 means the midpoint of a concentration-inhibition curve. For `Cc1c(C(=O)N(C)c2ccc(O)cc2)cc(-c2cc3c(cc2C(=O)N2Cc4ccccc4C[C@H]2CCN2CCOCC2)CN(C(=O)OC2CCCCC2)CC3)n1C` [Example 807, Cyclohexyl 6-{4-[(4-hydroxyphenyl)(methyl)carbamoyl]-1,5-dimethyl-1H-pyrrol-2-yl}-7-[(3S)-3-[2-(morpholin-4-yl)ethyl]-1,2,3,4-tetrahydroisoquinoline-2-carbonyl]-1,2,3,4-tetrahydroisoquinoline-2-carboxylate], the figures for the IC50 in assay [1] and in assay [2] were 3.9 nM and 26 nM, respectively.

Take `Cc1c(C(=O)N(C)c2ccc(O)cc2)cc(-c2cc3c(cc2C(=O)N2Cc4ccccc4C[C@H]2CCCN2CCOCC2)CN(C(=O)Oc2ccccc2)CC3)n1C` [Example 808, Phenyl 6-{4-[(4-hydroxyphenyl)(methyl)carbamoyl]-1,5-dimethyl-1H-pyrrol-2-yl}-7-[(3R)-3-[3-(morpholin-4-yl)propyl]-1,2,3,4-tetrahydroisoquinoline-2-carbonyl]-1,2,3,4-tetrahydroisoquinoline-2-carboxylate]: the half-inhibitory concentration (IC50) in assay [1] came to 2.7 nM; in assay [2] it was 1.6 nM.

As for `Cc1c(C(=O)N(C)c2ccc(O)cc2)cc(-c2cc3c(cc2C(=O)N2Cc4ccccc4C[C@H]2CCCN2CCOCC2)CN(C(=O)OC2CCCCC2)CC3)n1C` [Example 809, Cyclohexyl 6-{4-[(4-hydroxyphenyl)(methyl)carbamoyl]-1,5-dimethyl-1H-pyrrol-2-yl}-7-[(3R)-3-[3-(morpholin-4-yl)propyl]-1,2,3,4-tetrahydroisoquinoline-2-carbonyl]-1,2,3,4-tetrahydroisoquinoline-2-carboxylate], the results for the concentration for half-maximal inhibition (IC50) in assay [1] and in assay [2] were 3.1 nM and 9.8 nM, respectively.

For `Cc1c(C(=O)N(C)c2ccccc2)cc(-c2cc3c(cc2C(=O)N2Cc4ccccc4C[C@H]2CCCN2CCOCC2)CN(C(=O)OC2CCCCC2)CC3)n1C` [Example 811, Cyclohexyl 6-{1,5-dimethyl-4-[methyl(phenyl)carbamoyl]-1H-pyrrol-2-yl}-7-[(3R)-3-[3-(morpholin-4-yl)propyl]-1,2,3,4-tetrahydroisoquinoline-2-carbonyl]-1,2,3,4-tetrahydroisoquinoline-2-carboxylate], the IC50 in assay [1] was 3.8 nM; in assay [2], 94 nM.

The values are drawn from patent US9809574B2, “Isoindoline or isoquinoline compounds, a process for their preparation and pharmaceutical compositions containing them” (LES LABORATOIRES SERVIER, priority 2013, dated 2017).
